15 compounds from EP4120837B1, “INHIBITORS OF CYTOKININ OXIDASE DERIVED FROM 2-(3-PHENYLUREIDO)BENZAMIDE, USE THEREOF AND PREPARATIONS CONTAINING THESE DERIVATIVES” (Univerzita Palackého v Olomouci, priority 2020, dated 2021) can be followed below.

Structures are written as SMILES. pIC50: −log10 of the molar value.

T1 sequence (Q9T0N8 19-534): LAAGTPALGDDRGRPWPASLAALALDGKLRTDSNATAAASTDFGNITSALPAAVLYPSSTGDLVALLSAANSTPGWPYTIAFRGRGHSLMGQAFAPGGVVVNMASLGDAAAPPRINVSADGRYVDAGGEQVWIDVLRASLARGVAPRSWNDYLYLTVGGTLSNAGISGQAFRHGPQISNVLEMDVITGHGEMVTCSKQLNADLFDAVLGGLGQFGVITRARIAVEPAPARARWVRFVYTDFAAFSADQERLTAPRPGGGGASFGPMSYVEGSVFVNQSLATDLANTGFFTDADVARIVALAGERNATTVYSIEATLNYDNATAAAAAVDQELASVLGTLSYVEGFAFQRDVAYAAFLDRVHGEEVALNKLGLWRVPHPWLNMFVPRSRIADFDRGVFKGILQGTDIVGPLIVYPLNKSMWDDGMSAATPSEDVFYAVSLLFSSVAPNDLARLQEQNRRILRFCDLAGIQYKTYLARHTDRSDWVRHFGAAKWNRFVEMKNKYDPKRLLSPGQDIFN

The first test addresses T1, ZmCKX1 (Zea mays, UniProt Q9T0N8).
T1 construct: made in house; host or cells: Yarrowia lipolytica
The experiment in a line: ZmCKX1 inhibition, PMS/MTT assay. The class given is biochemical, maize.
Details: not given
The procedure: The IC50 (concentration of a substance that causes 50% inhibition of the enzyme activity) was measured by PMS/MTT assay [phenazine methosulphate/3-(4,5-dimethylthiazol-2-yl)-2,5-diphenyltetrazolium bromide]. The assay was performed in 96-well microtiter plates. Each well contained a reaction mixture with a final concentration of: 0.1 M KH2PO4, pH 7.4, 1 mM MTT, 0.2 mM PMS, tested substance in a concentration range of 0.1 nM - 1 µM and 10 µM N^6-isopentenyladenine (iP) as a substrate. To this reaction mixture 100 µL of medium containing the active enzyme ZmCKX1 was added. The enzyme was produced by the yeast Yarrowia lipolytica and isolated according to the protocol (Kopečný D. et al., 2005, […] 87:1011-1022). The plates were incubated for 30 min at 37 °C and the enzymatic reaction was stopped by the addition of 25 µL of 35% acetic acid. Then, the absorbance at 578 nm was measured on a spectrophotometer, and the absorbance of the sample without the substrate was substracted as a reference value. The IC50 value was determined from the concentration-dependent curves in GraphPad Prism software. The values shown in Table 1 are the average of at least two measurements each performed in three repetitions. […] The substance 3,5DCl-Ph-U is 1-(3,5-dichlorophenyl)-3-phenylurea, which we have been prepared to compare its inhibitory activity with the compounds presented in the present invention. Addition of the amide group to the unsubstituted phenyl ring of this substance gives the compound 2AD-3,5DC, which has 42-fold better inhibitory activity with the ZmCKX1 enzyme than 3,5DCl-Ph-U. F-INCYDE ((2-fluoro-9H-purin-6-yl)-(3-methoxyphenyl)amine), CPPU (1-(2-chloropyridin-4-yl)-3-phenylurea), and DCPPU (1-(2,6-dichloropyridin-4-yl)-3-phenylurea) are substances known in the prior art.
For orientation: Formazan colour is commonly taken as a measure of viable cells.
For orientation: pIC50 means −log10 of the IC50, conventionally taken in molar units. With `NNC(=O)c1ccc(Br)cc1NC(=O)Nc1cc(Cl)cc(Cl)c1` [compound 45, 1-(5-Bromo-2-hydrazinocarbonylphenyl)-3-(3,5-dichlorophenyl)-urea], the pIC50 was 7.70.

For `O=C(Nc1cc(Cl)cc(Cl)c1)Nc1cc(Br)ccc1C(=O)NCCO` [compound 48, 4-Bromo-2-[3-(3,5-dichlorophenyl)ureido]-N-(2-hydroxy-ethyl)benzamide], the pIC50 was 8.30. The same measure, in the same setting: the result for `NCCNC(=O)c1ccc(Br)cc1NC(=O)Nc1cc(Cl)cc(Cl)c1` [compound 55, N-(2-Aminoethyl)-4-bromo-2-[3-(3,5-dichlorophenyl)ureido]benzamide] reads 8.00.

Still in this test, the particulars now being: 10 µM iP as substrate, pH 7.4, 30 min at 37 °C; average of at least two measurements; read-out: IC50 (µM) ZmCKX1.
As a reminder, the IC50 is the concentration that gives 50% inhibition. Take `CCCNC(=O)c1ccc(OC)cc1NC(=O)Nc1cc(Cl)cc(Cl)c1` [compound 43, 2-[3-(3,5-dichlorophenyl)ureido]-4-methoxy-N-propylbenzamide]: the 50% inhibitory concentration (IC50) came to 0.004 µM. On the same count and under the same terms, the result for `NNC(=O)c1ccccc1NC(=O)Nc1cc(Cl)cc(Cl)c1` [compound 44, 1-(3,5-dichlorophenyl)-3-(2-hydrazinocarbonylphenyl)-urea] reads 0.074 µM; that for `COc1ccc(C(=O)NN)c(NC(=O)Nc2cc(Cl)cc(Cl)c2)c1` [compound 46, 1-(3,5-dichlorophenyl)-3-(2-hydrazinocarbonyl-5-methoxyphenyl)-urea], 0.018 µM; that for `O=C(Nc1cc(Cl)cc(Cl)c1)Nc1ccccc1C(=O)NCCO` [compound 47, 2-[3-(3,5-dichlorophenyl)ureido]-N-(2-hydroxy-ethyl)benzamide], 0.022 µM. As for `COc1ccc(C(=O)NCCO)c(NC(=O)Nc2cccc(F)c2)c1` [compound 49, 2-[3-(3-fluorophenyl)ureido]-4-methoxy-N-(2-hydroxy-ethyl)benzamide], the half-inhibitory concentration (IC50) was 0.04 µM. The same measure, in the same setting: the result for `COc1ccc(C(=O)NCCO)c(NC(=O)Nc2cc(Cl)cc(Cl)c2)c1` [compound 50, 2-[3-(3,5-dichlorophenyl)ureido]-4-methoxy-N-(2-hydroxyethyl)benzamide] reads 0.003 µM; that for `O=C(Nc1cccc(Cl)c1)Nc1ccccc1C(=O)NCCCO` [compound 51, 2-[3-(3-chlorophenyl)ureido]-N-(3-hydroxy-propyl)benzamide], 0.15 µM; that for `COc1ccc(C(=O)NCCCO)c(NC(=O)Nc2cc(Cl)cc(Cl)c2)c1` [compound 53, 2-[3-(3,5-dichlorophenyl)ureido]-4-methoxy-N-(3-hydroxy-propyl)benzamide], 0.02 µM. As for `COc1ccc(C(=O)NCCN)c(NC(=O)Nc2cc(Cl)cc(Cl)c2)c1` [compound 56, 2-[3-(3,5-dichlorophenyl)ureido]-4-methoxy-N-(2-amino-ethyl)benzamide], the IC50 came out at 0.013 µM. With `NCCNC(=O)c1ccc(OC(F)(F)F)cc1NC(=O)Nc1cc(Cl)cc(Cl)c1` [compound 57, 2-[3-(3,5-dichlorophenyl)ureido]-4-trifluoromethoxy-N-(2-amino-ethyl)benzamide], the IC50 amounted to 0.008 µM.

The same test, now with this note: read-out: IC50 (µM) ZmCKX1; 10 µM iP as substrate, pH 7.4, 30 min at 37 °C; average of at least two measurements.
Turning to `O=C(Nc1cccc(Cl)c1)Nc1cc(Br)ccc1C(=O)NCCCO` [compound 52, 4-bromo-2-[3-(3-chlorophenyl)ureido]-N-(3-hydroxy-propyl)benzamide], the IC50 was 0.08 µM.

Regarding `NCCNC(=O)c1ccc(Br)cc1NC(=O)Nc1cccc(Cl)c1` [compound 54, 4-bromo-2-[3-(3-chlorophenyl)ureido]-N-(2-amino-ethyl)benzamide], the IC50 came to 0.035 µM.
